Measurements from patent US10166271B2, “Methods for promoting hair growth” (THE REGENTS OF THE UNIVERSITY OF CALIFORNIA, priority 2006, dated 2019).
Values joined by “and” are separate entries in the source; they are usually repeats but may differ in a detail not shown here. Identical values can stand only once.

What was measured:
Assay type in all cases: in vivo
young CRF-OE mice = assay: Prevention of hair loss in young (not-yet-alopecic) CRF-OE mice, sc injection (Example 4); conditions: for Skin pigmentation (Pg) score / Ventral Abdomen Hair Score (VAb) / Back Hair Score (BK): sc 5 μg/mouse/day x 5 days, individual mice and group mean; for Skin pigmentation (Pg) score / Ventral Abdomen Hair Score (VAb) / Induction of skin pigmentation / Hair loss / development of alopecia / Back Hair Score (BK): young CRF-OE mice; for Induction of skin pigmentation: first week post injection; for Hair loss / development of alopecia: week 4 to week 16 post treatment
Protocol: Alopecia in this strain fully develops in adulthood at approximately 12 weeks and older.
Young CRF-OE mice (5-6 weeks old) were treated with astressin B, astressin 2B, or vehicle (saline). Treatments were a single, daily subcutaneous injection (0.1 ml volume) of vehicle alone or 5 μg peptide per mouse for five consecutive days. Pigmentation and hair coverage scores were determined pretreatment and 1, 4, 8 and 16 weeks after the last treatment. Hair growth and pigmentation were determined as described in Examples 1 and 2.

[1] = test system: hair follicles of CRF-OE mice; assay: Histology of dorsal skin hair follicles (H/E) in CRF-OE mice (Example 3); conditions: for Hair follicle morphology: H/E-stained skin sections of adult CRF-OE mice; for Skin thickness or hair follicle numbers versus wild type mice: adult CRF-OE mice
Description: Wild-type (C57BL/6) mice, saline-treated CRF-OE mice, CRF-OE mice treated with astressin B or astressin 2B as described in Example 1 (sc injection), and adult CRF-OE mice treated with astressin 2B as described in Example 2 (ip injection), were euthanized, Male mice were used in each case. Whole dorsal skin pieces were harvested for histology four weeks after the final sc injection of the respective peptides or two weeks after ip astressin B or saline injection.
Skin samples were fixed in 4% paraformaldehyde. Paraffin-embedded sections were processed for staining of hematoxylin/eosin and examined by light microscopy. The thickness of the epidermis plus dermis and depth of hair follicles were measured and the number of hair follicles was counted per unit (a field obtained with 10× objective) in a total of 5 units per section.

CRF-OE mice = assay: Hair growth and skin pigmentation after sc injection in adult alopecic CRF-OE mice (Example 1); conditions: for Back Hair Growth Score (BK) / Skin pigmentation (Pg) score: score 0-10, individual mice
Description: Adult (6-9 month old) male and female C57BL/6 mice that overexpress a rat CRF transgene (Stenzel-Poore et al., Endocrinol., 130:3378-3386, 1992) were used in this Example. […] Moreover, these animals display physical changes, such as excess abdominal fat accumulation, muscle atrophy, thin skin, and alopecia on the back and ventral abdomen area. Alopecia in these animals develops after about 7-8 weeks of age and is fully developed at about 4 months of age. This phenotype, i.e., hair loss in adulthood, is similar to that observed in some forms of human alopecia (e.g., the age-dependent balding of adult, human males (and females)).
CRF-OE mice were housed in standard plastic cages in a controlled environment (temperature=21-23° C.; humidity=30-35%; 12-hour light cycle with lights on 06:00 AM) and fed a standard rodent diet (PROLAB™ RMH 2500). Experiments were conducted in accordance with institutional guidelines.
Eight (8) male and 9 female CRF-OE mice were injected subcutaneously with 5 μg/mouse astressin B or astressin 2B, in 0.1 ml sterile water, once per day for 5 consecutive days. Similar doses of astressin B and astressin 2B previously were shown, respectively, to inhibit elevated ACTH release in adrenalectomized rats for over 12 hours (Rivier et al., J. Med. Chem., 42:3175-3182, 1999) and delay gastric emptying for over 6 hours (Rivier et al., J. Med. Chem., 45:4737-4747, 2002). […] CRF-OE mice similarly injected with saline alone were used as negative controls. Astressin B and astressin 2B peptides were synthesized as previously described (Rivier et al., J. Med. Chem., 45:4737-4747, 2002; Gulyas et al., Proc. Natl. Acad. Sci. USA, 92:10575-10579, 1995) and were diluted with sterile water immediately preceding each injection.
It appeared that hair growth (if any) typically was completed by 4 weeks post-treatment.
Hair growth in CRF-OE mice was assessed using the hair growth scale developed by Vegesna et al. […], 2002) modified to account for phenotypic differences between CRF-OE mice. Scores were made visually as well as using photographs of each mouse at a weekly interval. The degree of alopecia varied between individual CRF-OE mice; thus, the percent difference between the amount of hair present in the test area (described below) before and 4 weeks after treatment was converted to a score of 0-10. A zero score corresponded to a no change in the amount of hair in the test area and a score of 10 corresponded to full hair growth in the entire test area. The scale for monitoring hair growth in CRF-OE mice is more particularly described in Table 2.
The area was defined anteriorly by a line joining the front of the ears; posteriorly by a line joining the pelvic girdles; and laterally, between the lines projecting caudally from each ear root.
Pigmentation of the skin (also referred to as skin color) in the test region was also measured because, in C57BL/6 mice, the skin darkens at the onset of hair growth. A pigmentation score from 0-10 was given to each mouse with a score of 0 corresponding to bright pink skin color/pigment in the entire test region, a score of 1-5 corresponding to increasing intensity of a pale greyish color/pigment of skin in the test region, a score of 6-9 corresponding to increasing but non-confluent darker color/pigment of skin in the test region, and a score of 10 corresponding to black pigmentation of the entire test region. Pigmentation was measured one week after the fifth and final injection because changes (if any) in pigmentation are substantially complete by that time.

[2] = sc 5 μg/mouse/day x 5 days, adult CRF-OE mice, Week 0 (before injection), female mice
[3] = sc 5 μg/mouse/day x 5 days, adult CRF-OE mice, Week 0 (before injection), male mice
[4] = sc 5 μg/mouse/day x 5 days, adult CRF-OE mice, Week 1 after last injection, female mice
[5] = sc 5 μg/mouse/day x 5 days, adult CRF-OE mice, Week 1 after last injection, male mice
[6] = sc 5 μg/mouse/day x 5 days, adult CRF-OE mice, Week 0 (before injection)
[7] = sc 5 μg/mouse/day x 5 days, adult CRF-OE mice, Week 1 after last injection

Q: With “(cyclo 30-33)[DPhe12, Nle21,38, Cml27,40, Glu30, Lys33]Ac-h/rCRF9-41 [Astressin B]” as the substance, how does the “Mice with dark pigmentation of the skin” value (young CRF-OE mice; 1 week after the last injection, fraction of mice) read?
A: 5/5

Q: And the “Mice with little or less hair loss (as compared to vehicle-treated subjects)” value (young CRF-OE mice; by 4, 8 and 16 weeks after the last injection, fraction of mice)?
A: 4/5

Q: What about the “Skin pigmentation (Pg) score” value (young CRF-OE mice; Before (Week 0)) of the same substance?
A: 0

Q: And the “Ventral Abdomen Hair Score (VAb)” value (young CRF-OE mice; Week 4)?
A: 10

Q: What about the “Induction of skin pigmentation” value (young CRF-OE mice) of the same substance?
A: induced skin pigmentation within one week after the final injection

Q: What about the “Hair loss / development of alopecia” value (young CRF-OE mice) of the same substance?
A: remained protected from developing full alopecia

Q: And the “Hair loss / development of alopecia” value (young CRF-OE mice; listed as astressin 1)?
A: started to lose hair gradually 2 months after treatment

Q: What about the Hair follicle morphology [1] of the same substance?
A: more developed and defined in structure

Q: What about the “Skin thickness or hair follicle numbers versus wild type mice” value [1] of the same substance?
A: no significant differences

Q: And the “Average depth of hair follicles” value ([1]; treated adult CRF-OE mice (FIG. 3B, 4 weeks after last sc treatment), not significantly different from wild type)?
A: 0.42±0.05 mm

Q: And the “Mice responding with increased pigmentation and hair growth” value (CRF-OE mice; female CRF-OE mice, 8 out of 9, sc)?
A: 89%

Q: What about the “Mice responding with increased pigmentation and hair growth” value (CRF-OE mice; male CRF-OE mice, 4 out of 4, sc) of the same substance?
A: 100%

Q: What about the “Back Hair Growth Score (BK)” value (CRF-OE mice; [2]) of the same substance?
A: 0 (5×) and 1

Q: What about the “Skin pigmentation (Pg) score” value (CRF-OE mice; [2]) of the same substance?
A: 0

Q: What about the “Back Hair Growth Score (BK)” value (CRF-OE mice; [3]) of the same substance?
A: 0 (2×) and 1 (2×)

Q: And the “Skin pigmentation (Pg) score” value (CRF-OE mice; [3])?
A: 0

Q: What about the “Back Hair Growth Score (BK)” value (CRF-OE mice; [4]) of the same substance?
A: 2 (5×) and 1

Q: And the “Skin pigmentation (Pg) score” value (CRF-OE mice; [4])?
A: 2 and 8 (2×) and 10 and 0 and 7

Q: And the “Back Hair Growth Score (BK)” value (CRF-OE mice; [5])?
A: 2 (2×) and 1 (2×)

Q: And the “Skin pigmentation (Pg) score” value (CRF-OE mice; [5])?
A: 10 (2×) and 7 and 4

Q: And the “Back Hair Growth Score (BK)” value (CRF-OE mice; sc 5 μg/mouse/day x 5 days, adult CRF-OE mice, Week 4 after last injection, female mice)?
A: 2 and 8 (2×) and 9 (2×) and 0

Q: What about the “Back Hair Growth Score (BK)” value (CRF-OE mice; sc 5 μg/mouse/day x 5 days, adult CRF-OE mice, Week 4 after last injection, male mice) of the same substance?
A: 8 and 9 and 7 and 6

Q: What about the “Hair growth maintained post treatment” value (CRF-OE mice; sc, adult CRF-OE mice) of the same substance?
A: at least 4 weeks

Q: What about the “Onset of hair growth” value (CRF-OE mice; sc, adult CRF-OE mice, FIG. 1B) of the same substance?
A: as early as one week after the last injection

Q: What about the Hair growth coverage (CRF-OE mice; sc, range over treated adult CRF-OE mice) of the same substance?
A: 20-90%

Q: What about the “Hair growth substantially maintained without subsequent treatment” value (CRF-OE mice; two adult CRF-OE mice observed for an extended period, post treatment) of the same substance?
A: up to 4 months

Q: Which results are given for “cyclo(31-34)[DPhe11, His12, CαMeLeu13,39, Nle17, Glu31, Lys34]Ac-Sau(8-40) [Astressin 2B, reference compound]”?
A: Back Hair Score (BK) (young CRF-OE mice; Before (Week 0)): 9; Skin pigmentation (Pg) score (young CRF-OE mice; Before (Week 0)): 0; Back Hair Score (BK) (young CRF-OE mice; Week 1): 9; Ventral Abdomen Hair Score (VAb) (young CRF-OE mice; Week 16): 2.5; Induction of skin pigmentation (young CRF-OE mice): moderate induction of skin pigments; Hair loss / development of alopecia (young CRF-OE mice): lost hair and developed full alopecia; Hair follicle morphology [1]: did not have the normal morphology found in wild-type mice; Skin thickness or hair follicle numbers versus wild type mice [1]: no significant differences; Mice that grew significant amounts of hair (CRF-OE mice; sc 5 μg/mouse/day x 5 days, adult CRF-OE mice): 0%; Back Hair Growth Score (BK) (CRF-OE mice; [6]): 0 (2×) and 5; Skin pigmentation (Pg) score (CRF-OE mice; [6]): 0; Back Hair Growth Score (BK) (CRF-OE mice; [7]): 0; Skin pigmentation (Pg) score (CRF-OE mice; [7]): 1 and 2 (2×); Back Hair Growth Score (BK) (CRF-OE mice; sc 5 μg/mouse/day x 5 days, adult CRF-OE mice, Week 4 after last injection): 0
